The first test addresses T1, Hexokinase-4 (Homo sapiens) (UniProt P35557).
T1 sequence (whole entry): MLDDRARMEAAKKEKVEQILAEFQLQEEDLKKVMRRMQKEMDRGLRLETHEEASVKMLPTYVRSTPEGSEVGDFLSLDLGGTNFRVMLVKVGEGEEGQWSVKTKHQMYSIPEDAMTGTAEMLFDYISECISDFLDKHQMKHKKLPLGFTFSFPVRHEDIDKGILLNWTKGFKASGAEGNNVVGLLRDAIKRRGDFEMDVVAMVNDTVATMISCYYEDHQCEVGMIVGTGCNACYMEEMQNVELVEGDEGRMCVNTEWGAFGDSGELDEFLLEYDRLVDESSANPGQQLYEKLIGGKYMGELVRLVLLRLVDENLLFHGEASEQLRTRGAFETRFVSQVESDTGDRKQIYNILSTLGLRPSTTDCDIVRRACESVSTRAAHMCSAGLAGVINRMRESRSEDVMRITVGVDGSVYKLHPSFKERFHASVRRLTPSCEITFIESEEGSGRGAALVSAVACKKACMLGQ
Put plainly: Activation of human recombinant glucokinase expressed in Escherichia coli coexpressing G6PDH at 10 uM using 5 mM glucose measured as ratio of enzyme activation in treated to untreated control by G6PDH coupled continuous spectrophotometric assay.
With `Cc1sc(-c2ccccc2C(N)=O)cc1C(=O)Nc1nc2c(s1)CCC2`, the Ratio was determined as 3.34.
As to `Cc1cc(C(=O)Nc2nc3c(s2)CCC3)c(C)o1`, the Ratio is 1.88.
On the same count and under the same terms, the figure for `CCc1sc(-c2ccccc2S(C)(=O)=O)cc1C(=O)Nc1nc2c(s1)CCC2` is 2.76; for `COCCCc1cc(C(=O)Nc2nc3c(s2)CCC3)c(C)o1` it is 1.98.
Same read-out and setting: the figure for `CC(=O)CCc1cc(C(=O)Nc2nc3c(s2)CCC3)c(C)o1` is 2.07.
Take `Cc1cc(C(=O)Nc2nc3c(s2)CCCC3)cs1`: the Ratio came out at 1.88.
The same measure, in the same setting: the value for `O=C(Nc1nc2c(s1)CCCC2)C1CCOC1` (stereo not drawn) was 0.98; that for `CC(=O)c1cccc(-c2cc(C(=O)Nc3nc4c(s3)CCC4)c(C)o2)c1` was 1; that for `Cc1cc(C(=O)Nc2nc3c(s2)CCC3)c(C)s1` was 2.22.
Consider `Cc1noc(C)c1C(=O)Nc1nc2c(s1)CCCC2`, for which the Ratio came to 1.01.
The same measure, in the same setting: the figure for `CCc1sc(-c2ccccc2C(N)=O)cc1C(=O)Nc1nc2c(s1)CCC2` is 3.7; for `CCc1sc(-c2ccccc2S(C)(=O)=O)cc1C(=O)Nc1nc2c(s1)CCCC2` it is 2.16.
On the same count and under the same terms, the figure for `CC(=O)c1cc(C(=O)Nc2nc3c(s2)CCC3)c(C)o1` is 1.06; for `Cc1csc(NC(=O)c2cc(C)oc2C)n1` it is 1.24.

For another test, the target named is T1, Hexokinase-4 (Homo sapiens). Put plainly: Activation of human recombinant glucokinase expressed in Escherichia coli coexpressing G6PDH at 10 uM using 5 mM glucose measured as ratio of enzyme activation in compound treated to Ro-28-1675 by G6PDH coupled continuous spectrophotometric assay.
Take `Cc1sc(-c2ccccc2C(N)=O)cc1C(=O)Nc1nc2c(s1)CCC2`: the Ratio came out at 0.714.
With `Cc1cc(C(=O)Nc2nc3c(s2)CCC3)c(C)o1`, the Ratio is 0.219.
With `CCc1sc(-c2ccccc2S(C)(=O)=O)cc1C(=O)Nc1nc2c(s1)CCC2`, the Ratio worked out at 0.537.
`COCCCc1cc(C(=O)Nc2nc3c(s2)CCC3)c(C)o1`: the Ratio is 0.282.
On to `CC(=O)CCc1cc(C(=O)Nc2nc3c(s2)CCC3)c(C)o1`, for which the Ratio came to 0.29.
The same measure, in the same setting: the value for `Cc1cc(C(=O)Nc2nc3c(s2)CCCC3)cs1` was 0.177; that for `O=C(Nc1nc2c(s1)CCCC2)C1CCOC1` (stereo not drawn) was -0.006.
The same measure, in the same setting: the value for `CC(=O)c1cccc(-c2cc(C(=O)Nc3nc4c(s3)CCC4)c(C)o2)c1` was 0.
On the same count and under the same terms, the value for `Cc1cc(C(=O)Nc2nc3c(s2)CCC3)c(C)s1` was 0.312; that for `Cc1noc(C)c1C(=O)Nc1nc2c(s1)CCCC2` was 0.004; that for `CCc1sc(-c2ccccc2C(N)=O)cc1C(=O)Nc1nc2c(s1)CCC2` was 0.69.
As to `CCc1sc(-c2ccccc2S(C)(=O)=O)cc1C(=O)Nc1nc2c(s1)CCCC2`, the Ratio was determined as 0.297.
Same read-out and setting: the value for `CC(=O)c1cc(C(=O)Nc2nc3c(s2)CCC3)c(C)o1` was 0.015; that for `Cc1csc(NC(=O)c2cc(C)oc2C)n1` was 0.068.

The next test shares this target. Put plainly: Activation of human recombinant glucokinase expressed in Escherichia coli coexpressing G6PDH at 10 uM using 20 mM glucose measured as ratio of enzyme activation in treated to untreated control by G6PDH coupled continuous spectrophotometric assay.
Take `Cc1sc(-c2ccccc2C(N)=O)cc1C(=O)Nc1nc2c(s1)CCC2`: the Ratio turned out to be 1.8.
For the compound `Cc1cc(C(=O)Nc2nc3c(s2)CCC3)c(C)o1`, the Ratio is 1.42.
For the compound `CCc1sc(-c2ccccc2S(C)(=O)=O)cc1C(=O)Nc1nc2c(s1)CCC2`, the Ratio was determined as 1.41.
For the compound `COCCCc1cc(C(=O)Nc2nc3c(s2)CCC3)c(C)o1`, the Ratio amounted to 1.51.
As for `CC(=O)CCc1cc(C(=O)Nc2nc3c(s2)CCC3)c(C)o1`, the Ratio is 1.44.
Same read-out and setting: the figure for `Cc1cc(C(=O)Nc2nc3c(s2)CCCC3)cs1` is 1.17; for `O=C(Nc1nc2c(s1)CCCC2)C1CCOC1` (stereo not drawn) it is 0.93; for `CC(=O)c1cccc(-c2cc(C(=O)Nc3nc4c(s3)CCC4)c(C)o2)c1` it is 0.93.
With `Cc1cc(C(=O)Nc2nc3c(s2)CCC3)c(C)s1`, the Ratio was 1.37.
For `Cc1noc(C)c1C(=O)Nc1nc2c(s1)CCCC2`, the Ratio turned out to be 0.96.
Take `CCc1sc(-c2ccccc2C(N)=O)cc1C(=O)Nc1nc2c(s1)CCC2`: the Ratio stood at 1.92.
As to `CCc1sc(-c2ccccc2S(C)(=O)=O)cc1C(=O)Nc1nc2c(s1)CCCC2`, the Ratio was found to be 0.95.
Same read-out and setting: the value for `CC(=O)c1cc(C(=O)Nc2nc3c(s2)CCC3)c(C)o1` was 0.99.
For `Cc1csc(NC(=O)c2cc(C)oc2C)n1`, the Ratio was determined as 1.15.

A further test shares this target. Put plainly: Activation of human recombinant glucokinase expressed in Escherichia coli coexpressing G6PDH at 10 uM using 5 mM glucose by G6PDH coupled continuous spectrophotometric assay relative to Ro-28-1675.
Take `Cc1sc(-c2ccccc2C(N)=O)cc1C(=O)Nc1nc2c(s1)CCC2`: the Activity amounted to 69%.
On the same count and under the same terms, the value for `Cc1cc(C(=O)Nc2nc3c(s2)CCC3)c(C)o1` was 20%; that for `Cc1cc(C(=O)Nc2nc3c(s2)CCC3)c(C)s1` was 20%.
As for `CCc1sc(-c2ccccc2C(N)=O)cc1C(=O)Nc1nc2c(s1)CCC2`, the Activity was determined as 69%.

The target is the same in another test. The test can be described thus: Activation of human recombinant glucokinase expressed in Escherichia coli coexpressing G6PDH at 10 uM using 20 mM glucose by G6PDH coupled continuous spectrophotometric assay relative to Ro-28-1675.
Take `Cc1cc(C(=O)Nc2nc3c(s2)CCC3)c(C)o1`: the Activity came to 20%.
On the same count and under the same terms, the value for `Cc1cc(C(=O)Nc2nc3c(s2)CCC3)c(C)s1` was 20%; that for `CCc1sc(-c2ccccc2C(N)=O)cc1C(=O)Nc1nc2c(s1)CCC2` was 69%.

The next test has the same target. The test can be described thus: Activation of human recombinant glucokinase expressed in Escherichia coli coexpressing G6PDH at 10 uM using 20 mM glucose measured as ratio of enzyme activation in compound treated to Ro-28-1675 by G6PDH coupled continuous spectrophotometric assay.
As to `Cc1sc(-c2ccccc2C(N)=O)cc1C(=O)Nc1nc2c(s1)CCC2`, the Ratio stood at 0.713.
As to `Cc1cc(C(=O)Nc2nc3c(s2)CCC3)c(C)o1`, the Ratio worked out at 0.247.
Same read-out and setting: the figure for `CCc1sc(-c2ccccc2S(C)(=O)=O)cc1C(=O)Nc1nc2c(s1)CCC2` is 0.363; for `COCCCc1cc(C(=O)Nc2nc3c(s2)CCC3)c(C)o1` it is 0.331; for `CC(=O)CCc1cc(C(=O)Nc2nc3c(s2)CCC3)c(C)o1` it is 0.287.
Consider `Cc1cc(C(=O)Nc2nc3c(s2)CCCC3)cs1`, for which the Ratio is 0.095.
Still for that read-out and setting: the value for `O=C(Nc1nc2c(s1)CCCC2)C1CCOC1` (stereo not drawn) was -0.041; that for `CC(=O)c1cccc(-c2cc(C(=O)Nc3nc4c(s3)CCC4)c(C)o2)c1` was -0.039.
On to `Cc1cc(C(=O)Nc2nc3c(s2)CCC3)c(C)s1`, for which the Ratio amounted to 0.231.
Same read-out and setting: the figure for `Cc1noc(C)c1C(=O)Nc1nc2c(s1)CCCC2` is -0.025; for `CCc1sc(-c2ccccc2C(N)=O)cc1C(=O)Nc1nc2c(s1)CCC2` it is 0.736.
As to `CCc1sc(-c2ccccc2S(C)(=O)=O)cc1C(=O)Nc1nc2c(s1)CCCC2`, the Ratio was -0.041.
On the same count and under the same terms, the value for `CC(=O)c1cc(C(=O)Nc2nc3c(s2)CCC3)c(C)o1` was -0.003; that for `Cc1csc(NC(=O)c2cc(C)oc2C)n1` was 0.1.

These data come from ChEMBL document CHEMBL1821720, “Discovery and hit-to-lead optimization of novel allosteric glucokinase activators” (Bioorg Med Chem Lett, 2011).
